Reference: patent US20240142474A1, “Opsins as Chemosensory Receptors and Related Methods” (The Regents of the University of California, priority 2021, published 2024)
Entries after “also recorded” stand apart in the source; their conditions may differ.

How the values were obtained:
OPN3 [1] = biological target: T1, OPN3 (Mus musculus, UniProt Q9WUK7); assay: TANGO assay (beta-arrestin recruitment, luciferase reporter) in HTLA cells, OPN3; type: cell-based; conditions: 4 hours
T1 construct: expressed in transfected cells; host or cells: HTLA cells (HEK293 line with tTA-dependent luciferase reporter and beta-arrestin2-TEV fusion)
From the text: (§1) For example, in one implementation the chemosensory opsin activation detection element comprises a TANGO assay (Transcriptional Activation Following Arrestin Translocation), as known in the art, for example, as described by Kroeze et al., 2015. PRESTO-Tango as an open-source resource for interrogation the druggable human GPCRome. Nat Struct Mol Biol 22, 362-369. In the TANGO systems of the invention, a cell is engineered to express a chemosensory opsin in the form of a fusion protein, wherein the opsin fusion protein comprises an optional membrane trafficking signal (e.g. HA), an optional FLAG tag or like epitope to facilitate detection, and a transcriptional activator which induces the expression of a reporter gene, such as luciferase, wherein the transcriptional activator is joined to an intracellular portion of the opsin, for example, the […], by a cleavage sequence. The cells of the TANGO system are further engineered to express a second fusion protein comprising a beta-arrestin fused to a protease, for example, a TEV protease, wherein the protease is capable of cleaving the fusion protein at the cleavage site. The cells of the TANGO system are further engineered to express a reporter protein, e.g. luciferase, under the control of a transcriptional activator, for example, tetracycline-controlled transactivaor (tTA). Ligand binding to the opsin deployed in the TANGO system triggers a conformational change in the opsin that recruits the beta arrestin-protease fusion protein to the opsin, where proximity of the protease induces cleavage of the transcriptional activator, which trafficks to the nucleus and induces the expression of the reporter gene. The TANGO system advantageously allows direct quantification of opsin activation, independent of g protein activity.
(§2) Human transcriptomics data was mined to identify putative taste receptor proteins. […] However, the role of these opsins in taste perception has not been previously explored. TANGO detection elements employing each of these opsins, in both human and mouse isoforms, were created in HTLA cells (a HEK293 cell line stably expressing a tTA-dependent luciferase reporter and a β-arrestin2-TEV fusion gene), based on protocols in Kroeze et al., 2015. PRESTO-Tango as an open-source resource for interrogation of the druggable human GPCRome. Nat Struct Mol Biol 22, 362-369.
(§3) In the TANGO assay, the mouse opsin coding sequence with an N-terminal FLAG tag was synthesized. The construct was cloned into a TANGO vector (Addgene, Waterton MA) at the ClaI site (FLAG::opsin). The HTLA cells were transfected in a 6-well format with LIPOFECTAMINE 2000™ (Thermo Fisher Scientific, Inc, Waltham MA, USA) according to the manufacturer's instructions. 6-8 hours post transfection cells weret split 1:3 and the media was switched to DMEM+ 2.5% fetal bovine serum (Thermo Fisher Scientific Inc., Waltham MA, USA). Cells were allowed to grow for 48 hours before splitting the cells onto poly-L-lysine-coated 96-well clear, flat bottom white polystyrene plates in serum-free media. The next day, chemical solutions diluted in TANGO assay buffer (20 mM HEPES, 1× HBSS, pH 7.40) were added to the cells. After 4 hours, the medium and drug solutions were removed and replaced with […] per well of BRIGHTGLO™ reagent (Promega Corporation, Madison WI) diluted 20-fold with TANGO assay buffer. Plates were incubated for 20 minutes at room temperature in the dark before measuring luminescence with a plate reader (Molecular Devices, iD3). The normalized response was calculated using following formula: RLU (relative luminescence units)=test compound RLU−average vehicle control RLU.

OPN1SW [2] = biological target: T2, OPN1SW (Mus musculus, UniProt P51491); assay: TANGO assay (beta-arrestin recruitment, luciferase reporter) in HTLA cells, OPN1SW; type: cell-based; conditions: 4 hours
T2 construct: expressed in transfected cells; host or cells: HTLA cells (HEK293 line with tTA-dependent luciferase reporter and beta-arrestin2-TEV fusion)
T2 sequence (P51491 1-346): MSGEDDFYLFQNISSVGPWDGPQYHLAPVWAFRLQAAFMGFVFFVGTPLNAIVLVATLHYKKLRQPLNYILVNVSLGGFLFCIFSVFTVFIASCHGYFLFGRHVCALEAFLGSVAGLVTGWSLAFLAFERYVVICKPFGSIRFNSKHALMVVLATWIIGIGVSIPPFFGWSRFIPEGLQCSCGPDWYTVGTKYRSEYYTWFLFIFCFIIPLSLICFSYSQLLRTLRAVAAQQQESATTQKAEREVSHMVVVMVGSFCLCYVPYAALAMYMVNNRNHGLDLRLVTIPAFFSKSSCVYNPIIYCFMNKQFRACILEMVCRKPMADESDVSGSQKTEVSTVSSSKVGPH
From the text: as §1, §2, §3

OPN3 [3] = biological target: T3, OPN3 (Homo sapiens, UniProt Q9H1Y3); assay: Calcium flux GPCR activation assay with Fluo-8 dye, opsin-expressing HEK293T cells, OPN3; type: cell-based; conditions: Fluo-8 calcium flux, data not shown
T3 construct: expressed in transfected cells; host or cells: HEK293T
Procedure: (§4) These foregoing TANTO results were further confirmed using a second, a calcium flux GPCR activation assay employing Fluo-8 dye, as follows. For this intracellular Ca^2+ measurement, opsin-expressing HEK293T cells were seeded onto 96-well plates (4×10^4 cells per well) in 100 μl of culture medium with reduced serum contents (0.5% of FBS) per well and incubated overnight under standard culture conditions. [Ca2+]i level was assessed the next day after stimulation with bitter compounds used at a different concentration with the SCREEN QUEST Fluo-8 No Wash Calcium Assay Kit (AAT Bioquest, Inc., Sunnyvale, CA, USA) according to the supplier's protocol. Calcium flux was monitored simultaneously by the change in fluorescence (Ex/Em=490/520 nm) following stimulation and with respect to the background fluorescence. [Ca^2+]i was monitored for a period of three minutes, starting before the addition of compounds to the wells and continuing during measurement of the fluorescent signal following cells' stimulation. The obtained fluorescence reads were normalized to the results obtained after stimulation of the cells with the compound solvent.

OPN1SW [4] = biological target: T4, OPN1SW (Homo sapiens, UniProt P03999); assay: Calcium flux GPCR activation assay with Fluo-8 dye, opsin-expressing HEK293T cells, OPN1SW; type: cell-based; conditions: Fluo-8 calcium flux, data not shown
T4 construct: expressed in transfected cells; host or cells: HEK293T
T4 sequence (P03999 1-345): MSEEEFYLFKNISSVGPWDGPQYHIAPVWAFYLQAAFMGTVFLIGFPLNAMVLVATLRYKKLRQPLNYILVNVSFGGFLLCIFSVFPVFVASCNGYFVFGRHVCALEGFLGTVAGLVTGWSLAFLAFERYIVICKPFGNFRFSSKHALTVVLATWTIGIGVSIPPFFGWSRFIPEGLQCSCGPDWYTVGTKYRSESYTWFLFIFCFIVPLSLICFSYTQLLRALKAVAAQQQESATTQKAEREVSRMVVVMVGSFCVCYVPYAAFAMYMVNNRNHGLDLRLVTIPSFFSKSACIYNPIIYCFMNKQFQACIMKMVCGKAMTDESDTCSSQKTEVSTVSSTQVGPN
Procedure: as §4

OPN3 knockout mice = assay: Mouse brief-access taste assay (lickometer), OPN3 knockout mice compared to wild type; type: in vivo; conditions: water restricted
Procedure: Knockout mice were obtained for OPN1SW and OPN3. Two independent OPN3 knockout mice lines were tested for reaction to naringin by a mouse taste preference assay. A Lickometer device (MS-160, Di Log Instruments, Inc.,Tallahassee, FL, USA) was used to train mice and then measure their licking responses to different tastants in brief-access trials. On a given trial, each sipper tube was filled with a solution and made available to a mouse via a small port that opened to a metal/plexiglass chamber housing the animal. The mouse chamber of the lickometer was modified for these studies by adding a plexiglass barrier that restricted the free movement of animals to an approximate 10 by 15 cm area facing the fluid access port. A computer running software that communicated with the lickometer recorded tongue contacts with the metal tip of the sipper tube during licking and the time intervals (precision=1 ms) between consecutive licks (inter-lick intervals). The amount of time that the sipper tube was available through the access port could be programmed and was controlled by the opening of a normally closed, computer-actuated shutter. This feature facilitated presentation of solutions to a mouse for only a few seconds to support measurements of brief-access licking behavior. By indexing initial licking responses to stimuli over short periods, brief-access procedures intend to focus on oral sensory influences and avoid any post-ingestive effect. Groups of three to four mice were run in these studies at one time. Groups always included equal numbers of mutant and wild-type mice to control for temporal factors.
Training. Mice were restricted from drinking water for 20-22 hours prior to the onset of training. During training, experimentally naive mice learned to receive fluid in the lickometer over a 3-day period. On the first and second day of training, mice were given 30 minutes free access to a single sipper tube of water to familiarize them with accessing fluid in the lickometer device. Each 30 minute period began when the mouse made its first lick on the sipper tube; mice were allowed 30 minutes to make their first lick. On the third day of training, mice were presented with 10 second presentations (i.e., trials) of water to familiarize them with receiving and consuming fluid under a brief-access procedure in the lickometer. On each trial, the shutter that blocked access to the sipper tube was opened and mice were given 10 seconds to lick, and lick data were recorded by the lickometer computer. […]
Testing. […] For studies, individual Opn3KO, Opn1swKO, Opn4KO, Opn5KO and wild-type mice were evaluated for brief-access licking responses with different agonists. […]

T3 sequence (Q9H1Y3 whole entry): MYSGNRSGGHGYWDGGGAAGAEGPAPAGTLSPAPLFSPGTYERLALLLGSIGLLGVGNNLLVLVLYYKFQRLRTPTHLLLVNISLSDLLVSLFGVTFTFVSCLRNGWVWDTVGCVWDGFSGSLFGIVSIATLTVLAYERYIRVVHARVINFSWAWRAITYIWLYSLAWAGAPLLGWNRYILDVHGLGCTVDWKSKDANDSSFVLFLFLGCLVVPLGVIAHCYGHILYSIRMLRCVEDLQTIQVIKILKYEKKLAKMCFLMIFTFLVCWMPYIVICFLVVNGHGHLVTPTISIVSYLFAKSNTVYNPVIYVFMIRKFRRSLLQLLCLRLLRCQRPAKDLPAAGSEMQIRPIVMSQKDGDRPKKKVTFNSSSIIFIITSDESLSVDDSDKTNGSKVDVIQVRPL
T1 sequence (Q9WUK7 whole entry, the tested form may be a part): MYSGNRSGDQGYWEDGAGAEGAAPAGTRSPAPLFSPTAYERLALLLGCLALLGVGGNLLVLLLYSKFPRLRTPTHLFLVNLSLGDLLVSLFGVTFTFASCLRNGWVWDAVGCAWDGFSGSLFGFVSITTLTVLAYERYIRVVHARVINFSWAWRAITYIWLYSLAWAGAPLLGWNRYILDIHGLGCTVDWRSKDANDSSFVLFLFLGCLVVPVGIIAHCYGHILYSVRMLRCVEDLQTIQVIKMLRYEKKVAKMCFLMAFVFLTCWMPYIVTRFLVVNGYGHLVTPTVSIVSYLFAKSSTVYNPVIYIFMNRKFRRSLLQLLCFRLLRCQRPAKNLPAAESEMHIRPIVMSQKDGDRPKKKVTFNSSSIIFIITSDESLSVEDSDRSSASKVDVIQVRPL

Molecule	activation of OPN3, fold-change from baseline luciferase signal vs. log concentration of tastant (OPN3 [1])	activation of OPN1SW, fold-change from baseline luciferase signal vs. log concentration of tastant (OPN1SW [2])	activation of calcium dye OPN3 detection elements (OPN3 [3])	further results
O=C(O[C@@H]1Cc2c(O)cc(O)cc2O[C@@H]1c1cc(O)c(O)c(O)c1)c1cc(O)c(O)c(O)c1 [epigallocatechin gallate]	activation of OPN3	–	–	–
CC1=CC(=O)[N-]S(=O)(=O)O1.[K+] [asulfame potassium]	activation of OPN3	activation of OPN1SW	–	–
OC[C@H]1O[C@@H](Oc2ccccc2)[C@H](O)[C@@H](O)[C@@H]1O [phe-β-Glu, Phenyl-β-D-glucopyranoside]	activated	–	significantly activated in a concentration dependent manner	activation of OPN3, fold-change from baseline luciferase signal vs. log concentration of tastant (OPN3 [1]; listed as Phenyl-β-D-glucopyranoside): activation of OPN3
OC[C@H]1O[C@@H](Oc2ccc(O)cc2)[C@H](O)[C@@H](O)[C@@H]1O [arbutin]	activation of OPN3; also recorded: activated	–	significantly activated in a concentration dependent manner	–
CC1(C)O[C@H]2CC(=O)OC[C@]23[C@H]2CC[C@@]4(C)[C@H](c5ccoc5)OC(=O)[C@H]5O[C@]54[C@]2(C)C(=O)C[C@@H]13 [limonin]	–	activation of OPN1SW; also recorded: activated	–	activation of calcium dye OPN1SW detection elements (OPN1SW [4]): significantly activated in a concentration dependent manner
O=c1c(O)c(-c2ccc(O)c(O)c2)oc2cc(O)cc(O)c12 [quercetin]	activated OPN3; also recorded: activation of OPN3	–	–	aversion to the bitter flavor (lick ratio), OPN3 knockout mice compared to wild type mice (OPN3 knockout mice): reduced aversion
O=c1c(-c2ccc(O)cc2)coc2cc(O)cc(O)c12 [genistein]	–	activated	–	activation of OPN1SW, fold-change from baseline luciferase signal vs. log concentration of tastant (OPN1SW [2]; listed as genestein): activation of OPN1SW; activation of calcium dye OPN1SW detection elements (OPN1SW [4]): significantly activated in a concentration dependent manner
Cn1c(=O)c2[nH]cnc2n(C)c1=O [theophylline]	–	activation of OPN1SW; also recorded: activated	–	activation of calcium dye OPN1SW detection elements (OPN1SW [4]): significantly activated in a concentration dependent manner
COc1ccc2c(c1OC)C(=O)O[C@@H]2[C@H]1c2c(cc3c(c2OC)OCO3)CCN1C [noscapine]	activation of OPN3; also recorded: activated	–	significantly activated in a concentration dependent manner	–
N#C[C@H](O[C@@H]1O[C@H](CO[C@@H]2O[C@H](CO)[C@@H](O)[C@H](O)[C@H]2O)[C@@H](O)[C@H](O)[C@H]1O)c1ccccc1 [amygdalin]	activation of OPN3; also recorded: activated	–	significantly activated in a concentration dependent manner	–
Oc1cc(O)c2c(c1)O[C@H](c1cc(O)c(O)c(O)c1)[C@H](O)C2 [Epigallocatechin]	activated OPN3	–	–	aversion to the bitter flavor (lick ratio), OPN3 knockout mice compared to wild type mice (OPN3 knockout mice): reduced aversion
catechin	activated OPN3; also recorded: activation of OPN3	–	–	aversion to the bitter flavor (lick ratio), OPN3 knockout mice compared to wild type mice (OPN3 knockout mice): reduced aversion
O=c1c(O)c(-c2cc(O)c(O)c(O)c2)oc2cc(O)cc(O)c12 [myricetin]	activation of OPN3	–	–	–
